# Results from patent publication US9763996B2, “Polymyxin derivative and uses thereof” (Northern Antibiotics Ltd., priority 2015, dated 2017).
# “And” between values parts separate entries of the source, which are not always exact repeats. Equal entries are not always repeated. “Also recorded” adds a separate entry of the source. Where two headings read alike, the source gives them in different places. Where a SMILES comes first, the peptide text is derived from it. Bridges are numbered along the chain shown (N, C = ends). [ ]: non-standard residue; d: D form. The star is where a group is joined. Octanoyl = CCCCCCCC(=O)*; Dab = NCC[C@H](N)C(=O)O; Abu = CC[C@H](N)C(=O)O
# Key:
# E. coli ATCC 25922 = conditions: E. coli ATCC 25922
# [1] = 7-day IV infusion toxicity (nephrotoxicity) study in cynomolgus monkeys; conditions: for unscheduled necropsy / euthanized due to severe nephrotoxic effects: 3 animals per group
# Method: In vivo toxicity and toxicokinetic studies were performed by using cynomolgus monkeys. The laboratory that performed the animal studies is accredited by the Association for Assessment and Accreditation of Laboratory Animal Care (AAALAC), has an Animal Welfare Assurance issued by the Office of Laboratory Animal Welfare (OLAW), is registered with the United States Department of Agriculture (USDA), and has an Institutional Animal Care and Use Committee (IACUC) responsible for compliance with applicable laws and regulations concerning the humane care and use of laboratory animals.
# Naïve female cynomolgus monkeys were acclimatized to study room for 28 days during which each animal was implanted with a permanent indwelling femoral catheter to permit continuous intravenous infusions. The animals were allowed surgical recovery period of at least 2 weeks before initiating dosing.
# Polymyxin B sulfate was from Sigma-Aldrich (catalogue number P0972, lot number BCBF8382V). On each day of use, appropriate quantities of NAB739, NAB815 or polymyxin B were weighed and dissolved in appropriate volumes of sterile saline to prepare a stock solution for each test article and positive control. A correction factor was used in the stock solution preparation to account for both the purity and sulfate content in each test article. Accordingly, the dose (such as 36 mg/kg/d) refers to the dose of the pure peptide as its free base form, not as its sulfate salt.
# The doses were the following: polymyxin B 18 mg/kg/d (Group 1), polymyxin B 24 mg/kg/d (Group 2), NAB739 24 mg/kg/d (Group 3), NAB739 36 mg/kg/d (Group 4), NAB815 24 mg/kg/d (Group 5), NAB815 36 mg/kg/d (Group 6). Three animals were included in each study groups.
# (§1) For seven days, the animals were dosed by intravenous (IV) infusion three times daily (TID) at a dose volume of 10 mL/kg for 1 hour (±10 minutes), 8±0.5 hours apart. The day of initial dose administration was designated study Day 1, with subsequent days consecutively numbered. Days prior to the initial dose administration were consecutively numbered with the final day of acclimation referenced as Day −1.
# (§2) The following parameters were evaluated at designed intervals: clinical observations, body weights, clinical pathology (hematology, coagulation, serum chemistry, urinalysis including urine sediments and urine chemistry), toxicokinetics (plasma and urine) and anatomic pathology (kidney). In cases of animals sacrificed on an unscheduled basis, samples were taken on the day of the sacrifice.
# On the day of necropsy, animals were sedated with ketamine, weighed, and anesthetized with an intravenous injection of a commercial pentobarbital and phenytoin solution, followed by exsanguinations.
# At necropsy, gross observations and organ weights were recorded, and specific tissues were collected. Histopathology was conducted on sections of kidney stained with hematoxylin and eosin (H&E).
# The figures also show Urine N-acetyl-β-D-glucosaminidase/urine creatinine ratio (U-NAG/Crea; FIG. 3) and Urine Gamma Glutamyltransferase/urine creatinine ratio (U-GGT/Crea; FIG. 4), both urine biomarkers for kidney injury, in those animals. S-Crea and U-Crea were measured by using an Olympus Analyzer (OA) and the modified Jaffe method, S-BUN by using OA and urease/L-glutamate dehydrogenase. U-NAG was measured by using OA/enzymatic, and U-GGT by using OA and glutamyl-carboxy-p-nitroanilide IFCC.
# The presence of the following nephro-pathological parameters was recorded in each animal: tubular basophilia (re-generation), tubular degeneration/necrosis, infiltration (by mononuclear and/or mixed inflammatory cells), tubular dilatation, and tubular casts.
# E. coli JMI 3328 = conditions: for MIC: E. coli JMI 3328
# K. pneumoniae ATCC 43816 = conditions: K. pneumoniae ATCC 43816
# [2] = Toxicokinetics (plasma and urine) in cynomolgus monkeys; conditions: for AUC: plasma
# Method: as §1, §2
# Plasma and urine concentrations for toxicokinetic (TK) studies were determined by using liquid chromatograph interfaced with a mass spectrometer after precipitation of proteins. A sample (100 μL) was mixed with internal standard solution in water:formic acid (99:1 v/v; […]). Then, 600 μL of 100:1 acetonitrile:formic acid was added. The plates were centrifuged at 3200 rpm for 5 minutes. Using a Tomtec Quadra96, a 450 μL aliquot was transferred to a new 96-well plate and dried under nitrogen at 40° C. Then, 200 μL of water:methanol:formic acid (85:15:1 1 v/v) was added and the plate sealed for LC-MS/MS injection. LC-MS system consisted of Waters Acquity liquid chromatograph interfaced with a Thermo Scientific TSQ Quantitative triple quadrupole MS with ionization in the positive ion mode. Each sample (20 μL) was injected onto a Waters Acquity BEH Shield RP18 column (2.1×50 mm; 1.7 μm) equilibrated at 50° C. Mobile Phase A was 85:15:1 v/v water:methanol:formic acid. Mobile Phase B was 50:50:1 v/v acetonitrile:methanol:formic acid.
# Peak area ratios from the calibration standard responses were regressed using a (1/concentration^2) linear fit for polymyxin B using colistin as the internal standard. For NAB739 and NAB815, peak areas from the calibration standard responses were regressed using a (1/concentration^2) quadratic fit (without the use of an internal standard).
# The regression models were chosen based upon the behavior of the analytes across the concentration range used during development.
# Toxicokinetic analysis was performed by using WinNonlin Phoenix version 6.3 software (Pharsight, Cary, N.C.). For plasma TK, noncompartmental IV infusion model was used.
# In the cynomolgus monkey studies described in Example 3, where the peptides were administered as a 1-hour intravenous infusion three times daily, plasma and urine levels of the peptides were determined.
# K. pneumoniae JMI 27072 = conditions: K. pneumoniae JMI 27072
# P. aeruginosa JMI 7445 = conditions: P. aeruginosa JMI 7445
# A. baumannii ATCC 19606 = conditions: A. baumannii ATCC 19606
# [3] = in combination with rifampin 0.25 μg/mL
# [4] = alone, K. pneumoniae JMI 27068 (polymyxin-nonsusceptible)
# [5] = in combination with rifampin 0.25 μg/mL, K. pneumoniae JMI 27068
# [6] = in combination with rifampin 0.25 μg/mL, A. baumannii CMI 417
# [7] = peptide at 1 μg/mL, E. coli JM13328
Compound,MIC (E. coli ATCC 25922; alone) [µg/mL],MIC (E. coli ATCC 25922; [3]) [µg/mL],MIC (K. pneumoniae JMI 27068; [4]) [µg/mL],MIC (K. pneumoniae JMI 27068; [5]) [µg/mL],MIC (E. coli JMI 3328; alone) [µg/mL],MIC (E. coli JMI 3328; [3]) [µg/mL],MIC (K. pneumoniae ATCC 43816; [3]) [µg/mL],MIC (A. baumannii CMI 417; [6]) [µg/mL],MIC (K. pneumoniae JMI 27072; alone) [µg/mL],MIC (P. aeruginosa JMI 7445; alone) [µg/mL],MIC (A. baumannii ATCC 19606; alone) [µg/mL],MIC (A. baumannii ATCC 19606; [3]) [µg/mL],other results
Polymyxin B,2,0.5 to 1,64,1,2,0.5 to 1,0.5 to 1,1,2,2,2,0.5,"unscheduled necropsy / euthanized due to severe nephrotoxic effects ([1]; 18 mg/kg/d IV TID 7 days): all the three animals receiving polymyxin B at 18 mg/kg/d had to be euthanized; also recorded: on Day 4 for one animal receiving 18 mg/kg/d; also recorded: on Day 5 for two animals receiving 18 mg/kg/d; unscheduled necropsy / euthanized due to severe nephrotoxic effects ([1]; 24 mg/kg/d IV TID 7 days): Two animals receiving polymyxin B at 24 mg/kg/d; also recorded: for two animals receiving 24 mg/kg/d; S-BUN, S-Crea and U-GGT/Crea ([1]; 18 and 24 mg/kg/d IV TID, all the six animals): remarkably increased; U-NAG/Crea ([1]; 18 and 24 mg/kg/d IV TID, six animals): remarkably increased in five of the animals; MIC (K. pneumoniae ATCC 43816; alone): 2 µg/mL; MIC (A. baumannii CMI 417; alone, A. baumannii CMI 417 (polymyxin-nonsusceptible)): 32 µg/mL; 0-8 h recovery in urine (of the dose) ([2]; after infusion of 8 mg/kg, given for each animal, 8 mg/kg): 1% and 2% (2×); MIC (K. pneumoniae JMI 27072; [3]): 1 µg/mL; MIC (P. aeruginosa JMI 7445; [3]): 1 µg/mL"
"CCCCCCCC(=O)N[C@@H](CCN)C(=O)N[C@H](C(=O)N[C@@H](C(=O)N[C@H]1CCNC(=O)[C@H]([C@@H](C)O)NC(=O)[C@H](CCN)NC(=O)[C@H](CC)NC(=O)[C@H](CC(C)C)NC(=O)[C@@H](Cc2ccccc2)NC(=O)[C@H](CCN)NC1=O)[C@H](C)O)[C@@H](C)O [NAB815, octanoyl-αDab-Thr-DThr-[cyclo-α,γDab-αDab-DPhe-Leu-Abu-αDab-Thr]] (Octanoyl-[Dab]T[dT][Dab][Dab][dF]L[Abu][Dab]T; lactam 4-C)",2,1,128,4,4,1,1,2,2 to 4,8,4,0.5 to 2,"MIC of rifampin in the presence of the peptide (E. coli ATCC 25922; peptide at 1 μg/mL): 0.25 µg/mL; factor of decrease of the MIC of rifampin (E. coli ATCC 25922; peptide at 1 μg/mL): 32; kidney injury markers (S-BUN, S-Crea, U-NAG/Crea, U-GGT/Crea) ([1]; 24 mg/kg/d IV TID 7 days): None of the parameters was elevated; kidney injury markers (S-BUN, S-Crea, U-NAG/Crea, U-GGT/Crea) ([1]; 36 mg/kg/d IV TID 7 days): only minor if any elevations in the four parameters; unscheduled necropsy / euthanized due to severe nephrotoxic effects ([1]; 36 mg/kg/d IV TID 7 days): underwent no prescheduled necropsy; kidney histopathology findings (grade of nephro-pathological parameters) ([1]; 36 mg/kg/d IV TID, H&E kidney sections, per animal(s)): moderate findings, both in one parameter only; also recorded: no other than minimal or mild findings; also recorded: less severe nephropathic alterations with NAB815; MIC of rifampin in the presence of the peptide (E. coli JMI 3328; [7]): 0.25 µg/mL; factor of decrease of the MIC of rifampin (E. coli JMI 3328; [7]): 32; MIC of rifampin in the presence of the peptide (K. pneumoniae ATCC 43816; peptide at 1 μg/mL): 0.25 µg/mL; factor of decrease of the MIC of rifampin (K. pneumoniae ATCC 43816; peptide at 1 μg/mL): 64; AUC ([2]; cynomolgus monkey, in vivo, 36 mg/kg/day, AUCs, dosed at 36 mg/kg/d, day 1): 153 µg·h/mL; AUC ([2]; cynomolgus monkey, in vivo, iv, 8 mg/kg, AUCs 0-8 h, after infusion of 8 mg/kg, day 1): 102 µg·h/mL; AUC ([2]; cynomolgus monkey, in vivo, iv, 8 mg/kg, AUCs 0-8 h, after infusion of 8 mg/kg, day 7): 110 µg·h/mL; AUC ([2]; cynomolgus monkey, in vivo, iv, 36 mg/kg/day, AUCs, dosed at 36 mg/kg/d, day 7): 205 µg·h/mL; dose excreted ([2]; female, cynomolgus monkey, in vivo, iv, 36 mg/kg/d, urinary recoveries (0-8 h urine collection), 36 mg/kg/d, day 7, each animal): 33.9%"
